Measured values published in patent US10906929B2, “Phosphoramidate nucleoside derivatives as anticancer agents” (NuCana plc, priority 2016, dated 2021).

Assays:
L1210 = test: Cytostatic activity, cell counting (Coulter counter); assay type: cell-based; conditions: Mus musculus, L1210; uninfected, 48 h proliferation; read-out: IC50 L1210
From the text: (§1) Tumor cell cultures were infected with M. hyorhinis (ATCC 17981) and after two or more passages (to avoid bias by the initial inoculum) successful infection was confirmed using the MycoAlert™ mycoplasma detection kit (Lonza, Basel, Switzerland). Although this assay is only semi-quantitative, a maximal infection was observed 3 to 4 days after subcultivation of the mycoplasma-exposed cells. Chronically infected tumor cell lines are further referred to as Cell line.Hyor. All tumor cell cultures were maintained in Dulbecco's modified Eagle's medium (DMEM) (Invitrogen) supplemented with 10% fetal bovine serum (Biochrom AG, Berlin, Germany), 10 mm HEPES, and 1 mm sodium pyruvate (Invitrogen). Cells were grown at 37° C. in a humidified incubator with a gas phase containing 5% CO2.
(§2) The cytostatic activity of the test compounds was examined in mycoplasma-infected and uninfected cancer cell lines. When assaying the effect of M. hyorhinis infection, monolayer MCF7 and MCF7.Hyor cells were seeded in 48-well microtiter plates (Nunc™, Roskilde, Denmark) at 10,000 cells/well (Corning Inc., Corning, N.Y.) […]. After 24 h, the cells were exposed to different concentrations of test compound and allowed to proliferate for 72 h (to ensure sufficient cell proliferation and mycoplasma growth) after which the cells were trypsinized and counted using a Coulter counter (Analis, Suarlée, Belgium). Suspension cells (L1210, L1210.Hyor, FM3A, and FM3A.Hyor) were seeded in 96-well microtiter plates (Nunc) at 60,000 cells/well in the presence of different concentrations of test compound. The cells were allowed to proliferate for 48 h and then counted using a Coulter counter. The 50% inhibitory concentration (IC50) was defined as the compound concentration required to reduce cell proliferation by 50%.

MCF7 = test: as above; assay type: cell-based; conditions: Homo sapiens, MCF7; uninfected, 72 h proliferation; read-out: IC50 MCF7
From the text: as §1, §2

[1] = tested on: L1210 cells infected with Mycoplasma hyorhinis (HYOR); test: Cytostatic activity in mycoplasma-infected cells; assay type: cell-based, mouse
From the text: as §1, §2

[2] = tested on: MCF-7 Mammary epithelial adenocarcinoma; test: In vitro viability assay, CellTiterGlo; assay type: cell-based, human; conditions: MCF-7, CellTiterGlo, 72 h
Experimental: In vitro viability assay was performed to assess the effects of compounds on cell viability in selected cell lines over 72 h using the CellTiterGlo (CTG, Promega-G7573) assay. The tests were performed in duplicates with treatment of compounds at 9 points, 3.16 folds titration in 96 well plates over ˜72 h. The compound starting concentrations were […]. Cell viability assay using CellTiterGlo in 96-well plate were performed. Compounds were dissolved to 40 mM with thawed 100% DMSO. Compounds were serially diluted at 3.16-fold in thawed DMSO, and warmed to 37° C. before being dissolved in media (2 μl+200 μl). After compounds were dissolved in media, media containing compounds were warmed to 37° C. in incubator and then compounds in media were added to cell plates (50 μl+50 μl) in duplicates. The compounds' final concentrations were from 198 μM to 19.9 nM. Solubility of all compounds was checked and recorded again, then the plates were transferred to CO2 tissue culture incubator immediately and incubated for 3 days. DMSO final concentration is 0.5%.

KG1a cell line = test: Annexin V/propidium iodide apoptosis assay; assay type: cell-based; conditions: 72 h, dose required to kill 50% of the cells
Experimental: Cells of the KG1a cell line were maintained in RPMI medium (Invitrogen, Paisley, UK) supplemented with 100 units/ml penicillin, 100 μg/ml streptomycin and 20% foetal calf serum. Cells were subsequently aliquoted (10^5 cells/100 μl) into 96-well plates and were incubated at 37° C. in a humidified 5% carbon dioxide atmosphere for 72 h in the presence of nucleoside analogues and their respective phosphoramidates at concentrations that were experimentally determined for each series of compounds. In addition, control cultures were carried out to which no drug was added. Cells were subsequently harvested by centrifugation and were analyzed by flow cytometry using the Annexin V assay.
Measurement of in vitro apoptosis. Cultured cells were harvested by centrifugation and then resuspended in 195 μl of calcium-rich buffer. Subsequently, 5 μl of Annexin V (Caltag Medsystems, Botolph Claydon, UK) was added to the cell suspension and cells were incubated in the dark for 10 mins prior to washing. Cells were finally resuspended in 190 μl of calcium-rich buffer together with 10 μl of propidium iodide. Apoptosis was assessed by dual-colour immunofluorescent flow cytometry as described previously. Subsequently LD50 values (the dose required to kill 50% of the cells in a culture) were calculated for each nucleoside analogue and phosphoramidate.
The data obtained in these experiments were evaluated using one way ANOVA. All data was confirmed as Gaussian or a Gaussian approximation using the omnibus K2 test. LD50 values were calculated from the non-linear regression and line of best-fit analysis of the sigmoidal dose-response curves. All statistical analyses were performed using Graphpad Prism 6.0 software (Graphpad Software Inc., San Diego, Calif.).

[3] = tested on: MCF7 cells infected with Mycoplasma hyorhnis (HYOR); test: Cytostatic activity in mycoplasma-infected cells; assay type: cell-based, human
From the text: as §1, §2

U937 = test: In vitro cytotoxicity, MTS assay; assay type: cell-based; conditions: Homo sapiens, U-937, 72 h, read-out: Inhibitory concentration (IC50) U937
Experimental: (§3) Cladribine phosphoramidate derivatives were evaluated against six leukaemic cell lines (KG1, U937, K562, NB4R2, NB4 and HL-60) in vitro. Inhibitory concentration (IC50) at which 50% of the cells were no longer viable (calculated using MTS assay) was determined. Cells were treated with Cladribine and its 3′-phosphoramidate derivatives at concentrations between 100 μM and 0.02 μM by serial dilutions and incubated for 72 h at 37° C., 5% CO2 in a final volume of 90 μL. Twenty microliters of MTS reagent (Promega UK Ltd, Southampton, Hants) was added to the tumour cell cultures and reaction incubated for a further 4 h at 37° C., 5% CO2. The absorbance of the reaction after this time was read by spectrophotometry at 490 nm and the percentage of viable cells calculated relative to untreated control cells in the same assay.

NB4R2 = test: In vitro cytotoxicity, MTS assay; assay type: cell-based; conditions: 72 h, read-out: Inhibitory concentration (IC50) NB4R2
Experimental: as §3

HL-60 = test: In vitro cytotoxicity, MTS assay; assay type: cell-based; conditions: Homo sapiens, 72 h, read-out: Inhibitory concentration (IC50) HL-60
Experimental: as §3

K562 = test: In vitro cytotoxicity, MTS assay; assay type: cell-based; conditions: Homo sapiens, 72 h, read-out: Inhibitory concentration (IC50) K562
Experimental: as §3

KG1 = test: In vitro cytotoxicity, MTS assay; assay type: cell-based; conditions: Homo sapiens, KG-1, 72 h, read-out: Inhibitory concentration (IC50) KG1
Experimental: as §3

**Q.** Which IC50 (L1210) does the source give for Nc1nc(Cl)nc2c1ncn2[C@H]1C[C@H](O)[C@@H](CO)O1 [Cladribine, cladribine, reference compound] here?
**A.** The IC50 was 400 nM.

**Q.** And the IC50 (MCF7)?
**A.** The IC50 was 370 nM.

**Q.** And the Loss of potency ([1]; L1210/HYOR versus L1210)?
**A.** Its Loss of potency is 8-fold.

**Q.** And the IC50 ([1]; Mus musculus, L1210, 48 h, read-out: IC50 L1210/HYOR)?
**A.** The IC50 was 3000 nM.

**Q.** What about the EC50 ([2]; Homo sapiens, MCF7, read-out: EC50 (μM) Ab) of the same compound?
**A.** The EC50 was > 198 µM.

**Q.** What about the “Top Inhibition (%)” value [2] of the same compound?
**A.** The value was 36.3%.

**Q.** What about the LD50 (KG1a cell line) of the same compound?
**A.** Its LD50 is 0.18 μm.

**Q.** What about the IC50 ([3]; Homo sapiens, MCF7, 72 h, read-out: IC50 MCF7/HYOR) of the same compound?
**A.** The IC50 was 9300 nM.

**Q.** And the Loss of potency ([3]; MCF7/HYOR versus MCF7)?
**A.** The Loss of potency was 25-fold.

**Q.** And the IC50 (U937)?
**A.** Its IC50 is 20 nM.

**Q.** And the IC50 (NB4R2)?
**A.** Its IC50 is 60 nM.

**Q.** And the IC50 (HL-60)?
**A.** The IC50 was 90 nM.

**Q.** What about the IC50 (K562) of the same compound?
**A.** The IC50 was 530 nM.

**Q.** And the IC50 (KG1)?
**A.** Its IC50 is 60 nM.
